This note sets out measurements from US20070219141A1, “Plant Materials Extraction Method” (priority 2003, published 2007).

What all share (assay type): cell-based
The test system of one test is Pseudomonas aeruginosa. Kind of test: Disk diffusion assay on agar plates. Further details: key: “+” active; “—” not active. The text has this:
(§1) Microorganisms: Laboratory strains of bacteria and fungus were obtained from Dr. Neil Towers' and Dr. Jovel's lab, The University of British Columbia. Seven species of bacteria and one species of fungus will be used in the screening process. The bacteria strains consisted of Staphylococcus aureus, methicillin resistant Staphylococcus aureus, Bacillus subtilis and Enterococcus faecalis, Escherichia coli, Pseudomonas aeruginosa, and Salmonella typhimurium. The fungal species was Candida albicans.
(§2) Methods: Disk diffusion assay on agar plates inoculated with the organisms being studies. The plates were divided into quadrants or sixths using a black marking pen. In quadrant 1 and 2, negative and positive controls were run (no treatment and gentamicin). Test compounds were run on the remaining available portions.

Test [1] has as its system all the bacteria and fungus used in above biological screening. The test can be described thus: Disk diffusion assay, whole panel. The settings on record: seven bacteria and C. albicans.
Text: as §1, §2
(In agar diffusion tests the substance spreads into inoculated agar from a disc or well.)

For the next test, the system named is Candida albicans. Kind of test: Disk diffusion assay on agar plates. Further details: key: “+” active; “—” not active.
Text: as §1, §2

The test system of the next test is Enterococcus faecalis. Kind of test: Disk diffusion assay on agar plates. Also noted: key: “+” active; “—” not active.
Text: as §1, §2

The test system of another test is Salmonella typhimurium. The test can be described thus: Disk diffusion assay on agar plates. Also noted: key: “+” active; “—” not active.
Text: as §1, §2

For the compound `CC(C)c1cccc(=O)c(O)c1` [Hinokitiol standard, 2,4,6-Cycloheptatrien-1-one,2-hydroxy-4-(1-methylethyl)], the “Anti-microbial activity P. a” value with Pseudomonas aeruginosa is recorded as “+”. For the same compound, in test [1], the “anti-microbial activity over the panel, in words” value is “demonstrated activities against all the bacteria and fungus”.
As for Gentamicin, the “Anti-microbial activity C. a” value with Candida albicans is on record as “—”. Further, the “Anti-microbial activity E. f.” value with Enterococcus faecalis is recorded as “+”. Further, the “anti-microbial activity over the panel, in words” value in test [1] is “active against all the tested bacteria but not against C. albicans”.
In the case of `CC1(C)C=CC=C(C(=O)O)C=C1` [Thujic acid standard, thujic acid], the “Anti-microbial activity P. a” value in the test with Pseudomonas aeruginosa is listed as “—”. The “Anti-microbial activity S. t.” value with Salmonella typhimurium is “+”. Moreover, the “anti-microbial activity over the panel, in words” value in test [1] was “showed activities against some bacteria and fungus”.
